Experiments:
[1] = test system: human skin cancer SK-MEL-28 cells; experiment: Cell growth inhibition test against skin cancer cells (XTT); format: cell-based; conditions: read-out: GI50 value (concentration of 50% growth inhibition)
Method: (§1) A549 cells (1000 cells/well), SK-OV-3 cells (2000 cells/well), or HCT 116 cells (1000 cells/well) were seeded in each well of 96-well plates (Nunc, catalog No. 167008), and cultured overnight. Test compounds diluted stepwise were added, and the cells were further cultured for 72 hours (final volume: 100 μL/well). Fifty μL XTT labeling mixture of Cell Proliferation Kit II (XTT) (Roche Diagnostics, catalog No. 1465015) was added to each well, and the plates were incubated at 37° C. After 1 to 3 hours, absorbance at 490 nm (reference wavelength: 655 nm) was measured with a plate reader (Molecular Device, SpectraMax 340PC^384). Growth ratios of the cells in the wells treated with the test compounds were calculated based on the growth ratio of the cells in the control well treated with solvent (dimethyl sulfoxide (DMSO)) for 72 hours, which was defined as 100%.
(§2) As cancer cell lines, human pancreatic cancer MIA PaCa-2 cells (JCRB No. 0070), human cervical cancer HeLa cells (ATCC No. CCL-2), human breast cancer MDA-MB-468 cells (ATCC No. HTB-132), human prostate cancer DU 145 cells (ATCC No. HTB-81), human skin cancer SK-MEL-28 cells (ATCC No. HTB-72), human head and neck cancer KB cells (JCRB No. 9027), human renal cancer 786-0 cells (ATCC No. CRL-1932), and human liver cancer Hep G2 cells (ATCC No. HB-8065) were used. The cells were cultured at 37° C. in a 5% carbon dioxide atmosphere (except for the human breast cancer MDA-MB-468 cells, which were cultured under the condition at 37° C.) by using the mediums mentioned below, respectively.
(§3) In the same manner as that in Test Example 1, the cells were seeded (500 to 4000 cells/well, respectively) in each well of 96-well plates (Nunc, catalog No. 167008), and growth ratios of the cells treated with test compounds were calculated. The measurement of absorbance was performed at 1.5 to 3 hours after the addition of the XTT labeling mixture.

[2] = test system: human cervical cancer HeLa cells; experiment: Cell growth inhibition test against cervical cancer cells (XTT); format: cell-based; conditions: read-out: GI50 value (concentration of 50% growth inhibition)
Method: as §1, §2, §3

[3] = test system: human prostate cancer DU 145 cells; experiment: Cell growth inhibition test against prostate cancer cells (XTT); format: cell-based; conditions: read-out: GI50 value (concentration of 50% growth inhibition)
Method: as §1, §2, §3

[4] = target: T1, recombinant human Eg5 motor domain protein (Homo sapiens, UniProt P52732); experiment: Eg5 enzyme inhibition test (ATPase activity); format: biochemical; conditions: for IC50: 30° C., 30 minutes, absorbance at 360 nm, read-out: Inhibition ratios (IC50) on the ATPase activity of Eg5
T1 construct: A plasmid expressing the motor domain of human Eg5 was constructed; made in house; host or cells: Escherichia coli BL21 (DE3)
T1 sequence (P52732 18-359 limits assumed): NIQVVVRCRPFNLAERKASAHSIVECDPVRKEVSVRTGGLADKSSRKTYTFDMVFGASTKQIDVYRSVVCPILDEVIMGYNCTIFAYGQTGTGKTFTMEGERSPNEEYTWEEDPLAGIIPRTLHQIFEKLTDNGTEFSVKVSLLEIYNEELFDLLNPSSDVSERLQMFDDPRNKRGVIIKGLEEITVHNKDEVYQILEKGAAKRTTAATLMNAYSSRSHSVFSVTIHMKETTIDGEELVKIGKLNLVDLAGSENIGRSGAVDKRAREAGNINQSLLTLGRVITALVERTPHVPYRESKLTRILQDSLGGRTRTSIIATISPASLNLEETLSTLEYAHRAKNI
Method: A recombinant human Eg5 motor domain protein was prepared by referring to the literature [Biochemistry, Vol. 35, p. […] A plasmid expressing the motor domain of human Eg5 was constructed, and transformed into Escherichia coli BL21 (DE3). The transformant was cultured at 25° C., and when the OD600 reached 0.74, isopropyl-β-D-thiogalactoside was added at a final concentration of 0.5 mmol/L. The transformant was further cultured for 4 hours, and then the culture medium was centrifuged to collect the cells. The cells were suspended in a buffer and ultrasonicated, and then the sonicated solution was centrifuged to recover the supernatant. The supernatant was purified by cation exchange column chromatography to obtain a partially purified sample. Furthermore, the partially purified sample was purified by gel filtration column chromatography to obtain a finally purified sample.
Measurement of the ATPase activity of Eg5 was carried out by referring to the literatures [EMBO Journal, Vol. 13, p. […] Solution A was dispensed into each well of a 96-well plate as 45 μL portions. Solution B was used to serially dilute a test compound. The diluted test compound solutions in a volume of 30 μL were mixed with Solution A added beforehand in each well of the 96-well plate to start the enzymatic reaction. The enzymatic reaction was performed at 30° C. for 30 minutes. […] The relative activity was calculated to calculate IC50 value.

[5] = test system: human colon cancer HCT 116 cells; experiment: Cell growth inhibition test against colon cancer cells (XTT); format: cell-based; conditions: read-out: GI50 value (concentration of 50% growth inhibition), 72 hours
Method: (§4) As cancer cell lines, human lung cancer A549 cells (ATCC No. CCL-185), human ovarian cancer SK-OV-3 cells (ATCC No. HTB-77), and human colon cancer HCT 116 cells (ATCC No. CCL-247) were used. For the culture of A549 cells, Nutrient Mixture F-12K medium (Invitrogen, catalog No. 21127-022) containing 10% fetal bovine serum (Invitrogen, catalog No. 10099-141), 100 units/mL penicillin (Invitrogen, catalog No. 15140-122), and 100 μg/mL streptomycin (Invitrogen, catalog No. 15140-122) was used. For the culture of SK-OV-3 cells and HCT 116 cells, McCoy's 5A medium (Invitrogen, catalog No. 16600-082) containing 10% fetal bovine serum (Invitrogen, catalog No. 10099-141), 100 units/mL penicillin (Invitrogen, catalog No. 15140-122), and 100 μg/mL streptomycin (Invitrogen, catalog No. 15140-122) was used. The cells were cultured at 37° C. in a 5% carbon dioxide atmosphere.
as §1

[6] = test system: human head and neck cancer KB cells; experiment: Cell growth inhibition test against head and neck cancer cells (XTT); format: cell-based; conditions: read-out: GI50 value (concentration of 50% growth inhibition)
Method: as §1, §2, §3

[7] = test system: human breast cancer MDA-MB-468 cells; experiment: Cell growth inhibition test against breast cancer cells (XTT); format: cell-based; conditions: read-out: GI50 value (concentration of 50% growth inhibition)
Method: as §1, §2, §3

[8] = test system: human ovarian cancer SK-OV-3 cells; experiment: Cell growth inhibition test against ovarian cancer cells (XTT); format: cell-based; conditions: read-out: GI50 value (concentration of 50% growth inhibition), 72 hours
Method: as §4, §1

[9] = test system: human renal cancer 786-0 cells; experiment: Cell growth inhibition test against renal cancer cells (XTT); format: cell-based; conditions: read-out: GI50 value (concentration of 50% growth inhibition)
Method: as §1, §2, §3

[10] = test system: human pancreatic cancer MIA PaCa-2 cells; experiment: Cell growth inhibition test against pancreatic cancer cells (XTT); format: cell-based; conditions: read-out: GI50 value (concentration of 50% growth inhibition)
Method: as §1, §2, §3

[11] = test system: human lung cancer A549 cells; experiment: Cell growth inhibition test against lung cancer cells (XTT); format: cell-based; conditions: read-out: GI50 value (concentration of 50% growth inhibition), 72 hours
Method: as §4, §1

[12] = test system: human liver cancer Hep G2 cells; experiment: Cell growth inhibition test against liver cancer cells (XTT); format: cell-based; conditions: HepG2, read-out: GI50 value (concentration of 50% growth inhibition)
Method: as §1, §2, §3

Row | GI50 [1] [µM] | GI50 [2] [µM] | GI50 [3] [µM] | IC50 [4] [nM] | GI50 [5] [nM] | GI50 [6] [µM] | GI50 [7] [µM] | GI50 [8] [µM] | GI50 [9] [µM] | GI50 [10] [µM] | GI50 [11] [µM] | GI50 [12] [µM] | melting point [°C] | Compound | Inhibition of the ATPase activity of Eg5 (in words) [4]
1 | < 10 | < 10 | < 10 | < 100 | < 100 | < 10 | < 10 | < 10 | < 10 | < 10 | < 10 | < 10 | – | CCNCCS(=O)(=O)NCCC1(c2ccccc2)SC(NC(=O)C(C)(C)C)=NN1C(=O)C(C)(C)C (single isomer, unassigned) [Compound i, N-{4-(2,2-Dimethylpropionyl)-5-[2-(2-ethylaminoethanesulfonylamino)ethyl]-5-phenyl-4,5-dihydro-1,3,4-thiadiazol-2-yl}-2,2-dimethylpropanamide] | inhibited the ATPase activity of Eg5 in a concentration-dependent manner
2 | < 10 | < 10 | < 10 | < 100 | < 100 | < 10 | < 10 | < 10 | < 10 | < 10 | < 10 | < 10 | – | CC(C)(C)C(=O)NC1=NN(C(=O)C(C)(C)C)C(CCCC(=O)NCCO)(c2ccccc2)S1 (single isomer, unassigned) [Compound o, 4-[3-(2,2-Dimethylpropionyl)-5-(2,2-dimethylpropionylamino)-2-phenyl-2,3-dihydro-1,3,4-thiadiazol-2-yl]-N-(2-hydroxyethyl)butanamide] | inhibited the ATPase activity of Eg5 in a concentration-dependent manner
3 | < 10 | < 10 | < 10 | < 100 | < 100 | < 10 | < 10 | < 10 | < 10 | < 10 | < 10 | – | – | CCC(=O)N1N=C(NC(=O)C(C)(C)C)SC1(CCNS(C)(=O)=O)c1ccccc1 (single isomer, unassigned; (-)) [Compound b, (−)-N-[5-(2-Methanesulfonylaminoethyl)-5-phenyl-4-propionyl-4,5-dihydro-1,3,4-thiadiazol-2-yl]-2,2-dimethylpropanamide] | inhibited the ATPase activity of Eg5 in a concentration-dependent manner
4 | < 10 | < 10 | < 10 | < 100 | < 100 | < 10 | < 10 | < 10 | < 10 | < 10 | < 10 | < 10 | – | CC(C)C(=O)N1N=C(NC(=O)C(C)(C)C)SC1(CCNS(C)(=O)=O)c1ccccc1 (single isomer, unassigned; (-)) [Compound d, (−)-N-[4-Isobutyryl-5-(2-methanesulfonylaminoethyl)-5-phenyl-4,5-dihydro-1,3,4-thiadiazol-2-yl]-2,2-dimethylpropanamide] | inhibited the ATPase activity of Eg5 in a concentration-dependent manner
5 | < 10 | < 10 | < 10 | < 100 | < 100 | < 10 | < 10 | < 10 | < 10 | < 10 | < 10 | – | 169 to 171 | CC(=O)N1N=C(N2CCCCC2=O)SC1(CCNS(C)(=O)=O)c1ccccc1 (single isomer, unassigned; (-)) [Compound h, (−)-N-{2-[3-Acetyl-5-(2-oxopiperidino)-2-phenyl-2,3-dihydro-1,3,4-thiadiazol-2-yl]ethyl}methanesulfonamide] | inhibited the ATPase activity of Eg5 in a concentration-dependent manner
6 | < 10 | < 10 | < 10 | < 100 | < 100 | < 10 | – | < 10 | < 10 | < 10 | < 10 | < 10 | – | CCNCCS(=O)(=O)NCC1(c2ccccc2)SC(NC(=O)C(C)(C)C)=NN1C(=O)C(C)(C)C (single isomer, unassigned; (-)) [Compound l, (−)-N-[4-(2,2-Dimethylpropionyl)-5-(2-ethylaminoethanesulfonylamino-methyl)-5-phenyl-4,5-dihydro-1,3,4-thiadiazol-2-yl]-2,2-dimethylpropanamide] | inhibited the ATPase activity of Eg5 in a concentration-dependent manner
7 | < 10 | < 10 | < 10 | – | < 100 | < 10 | < 10 | < 10 | < 10 | < 10 | < 10 | < 10 | 101 to 104 | CN(C)CCS(=O)(=O)NCC1(c2ccccc2)SC(NC(=O)C(C)(C)C)=NN1C(=O)C(C)(C)C (single isomer, unassigned; (-)) [Compound m, (−)-N-[5-(2-Dimethylaminoethanesulfonylaminomethyl)-4-(2,2-dimethyl-propionyl)-5-phenyl-4,5-dihydro-1,3,4-thiadiazol-2-yl]-2,2-dimethylpropanamide] | –

— patent publication US20080194653A1, “Therapeutic Agent For Solid Tumor” (KYOWA HAKKO KOGYO CO., LTD., priority 2005, published 2008)
